A short description of this data set: solvent given as SMILES.

The structures appear in SMILES notation.

Molecule `O=[N+]([O-])c1ccc(/C2=C3N=C(C(c4ccccc4)=C/3c3ccccc3)/C(c3ccc([N+](=O)[O-])cc3)=c3\[nH]/c(c(-c4ccccc4)c3-c3ccccc3)=C(/c3ccc([N+](=O)[O-])cc3)C3=N/C(=C(/c4ccc([N+](=O)[O-])cc4)c4[nH]c2c(-c2ccccc2)c4-c2ccccc2)C(c2ccccc2)=C3c2ccccc2)cc1` displayed a fluorescence lifetime (in ClCCl) of 0.395 ns.

Turning to `COc1nc(Cl)nc(Nc2ccc3c4c(cccc24)C(=O)c2ccccc2-3)n1`, the fluorescence lifetime runs as follows: (in CC#N) 8.4 ns; (in CC(C)=O) 7.7 ns; (in CC(C)O) 8 ns; (in CCCCOCCCC) 0.9 ns; (in CCOC(C)=O) 3.9 ns; (in CCOCC) 1.6 ns. Further, the fluorescence lifetime runs as follows: (in CO) 7.7 ns; (in Cc1ccccc1) 2.8 ns; (in Clc1ccccc1) 5.4 ns; (in N#Cc1ccccc1) 7.8 ns; (in O=C1CCCCC1) 6.3 ns.

The molecule `FC(F)(F)c1ccc(-c2ccc(-c3cc(-c4ccccn4)nc(-c4ccccn4)c3)cc2)cc1` registered a fluorescence lifetime (in ClCCl) of 1.48 ns.

For `CC1(C)c2ccccc2N(c2ccccc2)c2ccc(-c3ccc(-c4ccc5c(c4)C(C)(C)c4ccccc4N5c4ccccc4)c4nsnc34)cc21`, the fluorescence lifetime (in c1ccc2c(c1)c1ccccc1n2-c1ccc(-c2ccc(-n3c4ccccc4c4ccccc43)cc2)cc1) was 7.2 ns.

For the molecule `CC1(C)c2ccccc2N(c2ccc3c(c2)c2ccccc2c2nc4ccccc4nc32)c2ccccc21`, for the setting “in c1cc(-c2cccc(-n3c4ccccc4c4ccccc43)c2)cc(-n2c3ccccc3c3ccccc32)c1”, the fluorescence lifetime is 68 ns.

`COCCOCCOCCOCC(COCCOCCOCCOC)Oc1cc(/C=C/c2ccc(/C=C(\C#N)c3ccncc3)cc2)c(OC(COCCOCCOCCOC)COCCOCCOCCOC)cc1/C=C/c1ccc(/C=C(\C#N)c2ccncc2)cc1` showed a fluorescence lifetime (in ClCCl) of 1.7 ns.

Under “in ClC(Cl)Cl”, `O=Cc1ccc(C#CC(C#Cc2ccc(C=O)s2)=Cc2ccc(C=C(C#Cc3ccc(C=O)s3)C#Cc3ccc(C=O)s3)cc2)s1` displayed a fluorescence lifetime of 0.8 ns.

With `CN(C)c1ccc2c(-c3cc(C(=O)[O-])ccc3C(=O)[O-])c3ccc(=[N+](C)C)cc-3oc2c1`, the fluorescence lifetime is 3.3 ns (in CCO) and 2.36 ns (in O).

On to `Cc1ccc(-c2sc(/C(C#N)=C/c3ccc(C#N)cc3)nc2-c2ccc(Cl)cc2)cc1`, for which the fluorescence lifetime (in CC#N) stood at 3.02 ns.

`CC1=C(c2cccs2)C(C)=[N+]2C1=C(c1ccc(OS(=O)(=O)c3ccc([N+](=O)[O-])cc3[N+](=O)[O-])cc1)c1c(C)c(-c3cccs3)c(C)n1[B-]2(F)F`: for the setting “in Cc1ccccc1”, the fluorescence lifetime was 3.6 ns.

`CN(C)c1ccc2nc(-c3ccc(C(=O)OC(C)(C)C)cc3)sc2c1` came in with a fluorescence lifetime (in C1CCCCC1) of 2.2 ns.

`COC(=O)c1cc(=O)n(C)c2cc(-c3cc4c5c(c3)CCCN5CCC4)sc12` had a fluorescence lifetime (in ClCCl) of 2.25 ns.

`Cc1cc(=O)oc2c1cc(Cl)c1occ(C)c12` had a fluorescence lifetime (in C1COCCO1) of 0.07 ns, a fluorescence lifetime (in CC#N) of 0.27 ns, a fluorescence lifetime (in CCO) of 0.21 ns and a fluorescence lifetime (in OCC(F)(F)F) of 0.72 ns.

Consider `CCOC(=O)C1=CN(c2ccccc2)C=CC1c1ccccc1` (stereo not drawn), for which the fluorescence lifetime is, setting by setting: (in C1CCOC1) 7.14 ns; (in CO) 7.55 ns.

On to `COc1cccc(OC)c1C1=C2C(C)=CC(C)=[N+]2[B-](F)(F)n2c(C)cc(C)c21`, for which the fluorescence lifetime runs as follows: (in C1CCOC1) 5.77 ns; (in CCCCCC) 6.26 ns.

As for `[NH3+]c1cc([NH3+])cc(-c2[nH+]c3ccccc3s2)c1`, under “in O”, the fluorescence lifetime amounted to 0.52 ns.

As for `O=C1c2ccccc2C2=Nc3cccc4cccc(c34)N12`, the fluorescence lifetime (in ClCCl) amounted to 0.86 ns.

As to `Cc1ccc2nc3[nH]c(=O)[nH]c(=O)c3nc2c1`, the fluorescence lifetime reads like this: (in CC#N) 0.6 ns; (in ClCCCl) 0.49 ns.

As to `CC1(C)CC(/N=C/c2ccc3ccc4cccc5ccc2c3c45)CC(C)(C)N1[O]`, the fluorescence lifetime stood at 8.3 ns (in C1CCCCC1) and 2.1 ns (in CO).

Take `F[B-]1(F)Oc2ccccc2-c2c3c(c4c([n+]21)CCc1ccccc1-4)CCc1ccccc1-3`: the fluorescence lifetime (in ClCCl) was 2.15 ns.

For the molecule `COc1ccc(C#Cc2ccc(C#N)cc2)cc1OC`, the fluorescence lifetime came out at 1.09 ns (in C1COCCO1); 2.03 ns (in CC#N); 0.37 ns (in CCCCCC); 0.38 ns (in CCCCCCC); 0.95 ns (in CCCO); 1 ns (in CCOC(C)=O). Besides, the fluorescence lifetime came to 2.51 ns (in CS(C)=O), 0.89 ns (in ClC(Cl)Cl) and 1.25 ns (in ClCCl).

For `COc1ccc(N(c2ccc(OC)cc2)c2ccc3ccc4c(B(c5c(C)cc(C)cc5C)c5c(C)cc(C)cc5C)ccc5ccc2c3c54)cc1`, the fluorescence lifetime was determined as 3.2 ns (in C1CCOC1); 0.7 ns (in CC(C)=O); 6.2 ns (in CCCCCC); 8.2 ns (in Cc1ccccc1); 8.5 ns (in ClC(Cl)Cl); 3.9 ns (in ClCCl).

In the case of `CN(C)c1ccc(/C=C/c2ccc(-c3ccc(/C=C/c4ccc(N(C)C)cc4)s3)s2)cc1`, the fluorescence lifetime amounted to 1.08 ns (in C1CCOC1); 1.12 ns (in CC#N); 1.11 ns (in CC(C)=O); 1.15 ns (in CN(C)C=O); 1.03 ns (in Cc1ccccc1).

As for `CC(C)(C)c1ccc(-c2c3c(c(-c4ccccc4)c4cc5ccccc5cc24)Cc2c(c(-c4ccccc4)c4cc5ccccc5cc4c2-c2ccc(C(C)(C)C)cc2)C3)cc1`, under “in ClCCl”, the fluorescence lifetime worked out at 2.67 ns.

On to `CCCCCCn1c2cc(/C=C(\C#N)c3cccs3)ccc2c2ccc(/C=C(\C#N)c3cccs3)cc21`, for which, under “in ClC(Cl)Cl”, the fluorescence lifetime is 0.56 ns.

Take `CCCCCCC(CCCCCC)N1C(=O)c2cccc3c(-c4ccc(OC)c5ccccc45)ccc(c23)C1=O`: the fluorescence lifetime reads like this: (in CCCCCC) 1.7 ns; (in CCCCCCCCCCCCCC) 1.83 ns; (in CCCCCCCCCCCO) 4.85 ns; (in CCCCO) 1.8 ns; (in CN(C)C=O) 3.85 ns; (in Cc1ccccc1) 1.53 ns. In addition, the fluorescence lifetime (in ClC(Cl)Cl) was found to be 4.07 ns.

`Cn1ccc(-n2cncn2)nc1=O` came in with a fluorescence lifetime (in O) of 3.43 ns.

`CCCCC(CC)CN1C(=O)C2=C(c3ccc(-c4ccc(C5=C6C(C)=CC(C)=[N+]6[B-](F)(F)n6c(C)cc(C)c65)cc4)s3)N(CC(CC)CCCC)C(=O)C2=C1c1ccc(-c2ccc(C3=C4C(C)=CC(C)=[N+]4[B-](F)(F)n4c(C)cc(C)c43)cc2)s1` (stereo not drawn) registered a fluorescence lifetime (in Cc1ccccc1) of 3.36 ns.

With `CCCCCCN1C(=O)c2cccc3c(-c4ccc(-c5cccs5)s4)ccc(c23)C1=O`, where the note is “in ClC(Cl)Cl”, the fluorescence lifetime was determined as 0.564 ns.

For the setting “in CC#N”, `N#C/C(=C\c1ccc(C#N)cc1)c1nc(-c2ccccc2)c(-c2ccccc2)s1` displayed a fluorescence lifetime of 3.2 ns.

Where the note is “in ClCCl”, `CCc1c(C)c2n(c1C)[B-](F)(F)[N+]1=C(c3ccc[nH]3)c3ccccc3C1=C2` came in with a fluorescence lifetime of 6.41 ns.

`CCOC(=O)c1ccc(NC(=O)COc2cc3c4c([nH]c3c(C)c2C)C(=O)CCC4)cc1`: the fluorescence lifetime runs as follows: (in C1COCCO1) 1.23 ns; (in CC#N) 1.04 ns; (in CCO) 1.26 ns; (in CS(C)=O) 2.12 ns; (in Cc1ccccc1) 1.1 ns.

Turning to `COc1ccc(-c2c3ccc([nH]3)c3nc(c(-c4ccc([N+](=O)[O-])cc4)c4ccc([nH]4)c4ccc([nH]4)c(-c4ccc(OC)cc4)c4ccc2o4)C=C3)cc1`, the fluorescence lifetime is, setting by setting: (in C1CCOC1) 0.66 ns; (in Cc1ccccc1) 4.33 ns; (in c1ccccc1) 4.2 ns.

`O=[N+]([O-])c1cccc2c1ccc1[n+]2[B-](F)(F)n2c-1cc1c3ccccc3c3ccccc3c12` returned a fluorescence lifetime (in ClCCl) of 2.67 ns.

As for `CC(C)CCCN1c2ccccc2CCc2ccccc21`, the fluorescence lifetime by setting is: (in CC#N) 0.89 ns; (in CO) 0.86 ns.

These data come from the Deep4Chem optical property database.
